Assay results taken from patent EP1100539B1, “COMBINATION OF ACTIVE SUBSTANCES, ESPECIALLY FOR THE PROPHYLAXIS AND THERAPY OF ISCHAEMIC ORGANIC LESIONS AND REPERFUSION SYNDROMES” (Vascular Biotech GmbH, priority 1998, dated 2000).
Several values for one entry are separate records, joined by “and”; a condition that tells them apart may be missing. Equal values may be shown once.

Test system: Meerschweinchenherzen
Assay: Working guinea pig heart, ischaemia/reperfusion with activated PMN and platelets (Versuchsgruppe 1)
Design: species or system Meerschweinchen
Conditions: for Herzleistung [% der initialen Leistung] / Interstitielles Volumen / Koronarfluß [% des Basalflusses]: flavone derivative 3*10^-5 M, individual hearts; for protektive Wirkung: ischaemic heart, Versuchsgruppe 1
Description: Pathogene Wirkung von gleichzeitig aktivierten PMN und Thrombozyten im ischämischen Herzen. Als Studienobjekt dienten arbeitende, also Volumen gegen bestimmte Drucke auswerfende Meerschweinchenherzen. […] Thrombin, FMLP ([…]-Formyl-[…]) und […] Interaktion der Blutzellen mit dem koronaren Endothel bei diesen Versuchen. Tabelle 3: ^i Als Blutzellpräparate wurden eingesetzt: a) hochreine PMN (1-2*10^5/ml), […] Vorinkubation mit 100 μM […]) bzw. […] von PMN und TASS (bzw. T) in jeweils analogen Konzentrationen. Tabelle 3 gibt die unter […] bei […] von PMN und Thrombozyten (TASS = […] Vorinkubation mit 100μM […] = nicht […].

[1] = PMN+T (platelets not preincubated with Acetylsalicylsäure)
[2] = PMN+TASS (platelets preincubated 1 h with 100 µM Acetylsalicylsäure, washed)
[3] = acute application of the flavonoid alone
[4] = flavonoid applied in combination with Acetylsalicylsäure

Row | SMILES | Herzleistung [% der initialen Leistung] [1] | Interstitielles Volumen [1] | Koronarfluß [% des Basalflusses] [1] | Herzleistung [% der initialen Leistung] [2] | Interstitielles Volumen [2] | Koronarfluß [% des Basalflusses] [2] | protektive Wirkung | Verschlechterung der postischämischen Funktionsdaten (ΔP/Δt; interstitielles Volumen; Koronarfluß) [3] | Verschlechterung der postischämischen Funktionsdaten (ΔP/Δt; interstitielles Volumen; Koronarfluß) [4]
1 | O=C1CCOc2ccccc21 [4-Chromanon, reference compound] | 27 % der initialen Leistung and 29 % der initialen Leistung and 38 % der initialen Leistung and 31 % der initialen Leistung and 17 % der initialen Leistung and 22 % der initialen Leistung | 373 µL/g and 348 µL/g and 354 µL/g and 318 µL/g and 356 µL/g | 44 % des Basalflusses and 19 % des Basalflusses and 35 % des Basalflusses and 26 % des Basalflusses and 29 % des Basalflusses | 79 % der initialen Leistung and 81 % der initialen Leistung and 74 % der initialen Leistung and 71 % der initialen Leistung and 69 % der initialen Leistung and 78 % der initialen Leistung | 155 µL/g and 148 µL/g and 168 µL/g and 161 µL/g and 165 µL/g | 88 % des Basalflusses and 74 % des Basalflusses and 79 % des Basalflusses (2×) and 81 % des Basalflusses and 82 % des Basalflusses | keine protektive Wirkung |  | 
2 | O=c1cc(-c2ccccc2)oc2ccccc12 [Flavon, reference compound] | 31 % der initialen Leistung (2×) and 18 % der initialen Leistung and 35 % der initialen Leistung and 29 % der initialen Leistung | 344 µL/g and 389 µL/g and 388 µL/g and 358 µL/g and 346 µL/g | 33 % des Basalflusses and 19 % des Basalflusses and 31 % des Basalflusses and 28 % des Basalflusses and 29 % des Basalflusses | 78 % der initialen Leistung and 81 % der initialen Leistung and 69 % der initialen Leistung and 82 % der initialen Leistung and 83 % der initialen Leistung | 129 µL/g and 153 µL/g and 145 µL/g and 148 µL/g and 169 µL/g | 88 % des Basalflusses and 77 % des Basalflusses and 73 % des Basalflusses and 81 % des Basalflusses and 87 % des Basalflusses | keine protektive Wirkung |  | 
3 | O=C1C[C@@H](c2ccc(O)cc2)Oc2cc(O)cc(O)c21 [Naringenin] | 63 % der initialen Leistung and 49 % der initialen Leistung and 54 % der initialen Leistung and 69 % der initialen Leistung and 68 % der initialen Leistung | 169 µL/g and 175 µL/g and 189 µL/g and 205 µL/g and 198 µL/g | 57 % des Basalflusses and 55 % des Basalflusses and 63 % des Basalflusses and 51 % des Basalflusses and 45 % des Basalflusses and 46 % des Basalflusses | 90 % der initialen Leistung and 97 % der initialen Leistung and 84 % der initialen Leistung and 94 % der initialen Leistung and 82 % der initialen Leistung and 89 % der initialen Leistung | 98 µL/g and 117 µL/g and 107 µL/g and 109 µL/g and 102 µL/g | 107 % des Basalflusses and 98 % des Basalflusses and 93 % des Basalflusses and 92 % des Basalflusses and 89 % des Basalflusses and 101 % des Basalflusses |  | abgeschwächt | vollständig aufgehoben
4 | O=c1c(O)c(-c2ccc(O)c(O)c2)oc2cc(O)cc(O)c12 [Quercetin] | 66 % der initialen Leistung and 69 % der initialen Leistung and 58 % der initialen Leistung and 44 % der initialen Leistung and 70 % der initialen Leistung | 159 µL/g and 178 µL/g and 181 µL/g and 185 µL/g and 162 µL/g | 61 % des Basalflusses and 49 % des Basalflusses (2×) and 55 % des Basalflusses and 62 % des Basalflusses and 40 % des Basalflusses | 82 % der initialen Leistung and 86 % der initialen Leistung and 90 % der initialen Leistung and 85 % der initialen Leistung and 94 % der initialen Leistung | 108 µL/g and 113 µL/g and 107 µL/g and 104 µL/g and 125 µL/g and 118 µL/g | 101 % des Basalflusses and 107 % des Basalflusses and 89 % des Basalflusses and 95 % des Basalflusses and 91 % des Basalflusses |  | abgeschwächt | vollständig aufgehoben
